Results on 52 molecules are retold here after patent publication US8536204B2, “Amides and thioamides as pesticides” (Bayer CropScience AG, priority 2009, dated 2013).

Data set [1] concerns green peach aphid (Myzus persicae). The experiment in a line: Myzus test (spray treatment). The settings on record: 144 h, read-out: efficacy in % (100% means that all aphids have been killed); for pest or weed control at 50 g/ha: application rate 50 g/ha. The class given is in vivo. The method, then:
Myzus Test (Spray Treatment)
Solvent: • 78 parts by weight of acetone • 1.5 parts by weight of dimethylformamide
Emulsifier: 0.5 part by weight of alkylaryl polyglycol ether
To produce an appropriate active ingredient formulation, 1 part by weight of active ingredient is mixed with the amounts of solvent and emulsifier specified and the concentrate is diluted to the desired concentration with emulsifier-containing water.
Chinese cabbage leaf slices (Brassica pekinensis) infested by all stages of the green peach aphid (Myzus persicae) are sprayed with an active ingredient formulation of the desired concentration.
After 6 days, the efficacy in % is determined. 100% means that all aphids have been killed; 0% means that no aphids have been killed.

Data set [2] in a line: Determination of the logP values (formic acid method) by HPLC. The data set is classed as physicochemical. How it is done: 1) Description of Method for Determining the LogP Values (Formic Acid Method)
The logP values reported in the table were determined according to EEC-Directive 79/831 Annex V.A8 by HPLC (High Performance Liquid Chromatography) on a reversed-phase column (C 18). Temperature: 55° C.
Eluents for the determination in the acidic range (pH 3.4):
Eluent A: acetonitrile+1 ml of formic acid/litre. Eluent B: water+0.9 ml of formic acid/litre.
Gradient: from 10% eluent A/90% eluent B to 95% eluent A/5% eluent B in 4.25 min.
The calibration was effected with unbranched alkan-2-ones (with 3 to 16 carbon atoms), whose logP values are known (determination of the logP values on the basis of the retention times by linear interpolation between two successive alkanones). The lambda-max values were determined with reference to the UV spectra from 200 nm to 400 nm in the maxima of the chromatographic signals.

[3] abbreviates: application rate 500 g/ha, spray on Chinese cabbage leaf slices, after 6 days.
[4] abbreviates: reversed-phase HPLC column (C 18), pH 3.4, HPLC on reversed-phase column (C 18), acidic range (pH 3.4), 55° C., Table 1, read-out: logP (HCOOH).
[5] abbreviates: spray on Chinese cabbage leaf slices, after 6 days.
The mark [6] stands for this setting: reversed-phase HPLC column (C 18), pH 3.4, formic acid method, pH 3.4, given in the preparation examples, read-out: log P (HCOOH).
Where [7] appears, read: HPLC on reversed-phase column (C 18), acidic range (pH 3.4), 55° C., Table 1, read-out: logP (HCOOH).

Read-outs that look alike come from different tables or passages of the source.

Consider `O=C(NCc1nc(C2CC2)no1)c1cnn(-c2cccnc2)c1` [Example 20], for which the pest or weed control at 500 g/ha in data set [1] (setting [3]) amounted to 100%. Besides, the chromatographic logP in data set [2] (setting [4]) turned out to be 1.21.
In the same order, the values of `O=C(NCC1CC1)c1cnn(-c2cccnc2)c1` [Example 25] are 100% and 1.16.
Take `Cc1nn(-c2cccnc2)cc1C(=O)NCC#N` [Example 44]: in data set [2] (setting [4]), the chromatographic logP is 0.79.
In the case of `O=C(NCC(F)(F)C(F)(F)F)c1cnn(-c2cccnc2)c1` [Example 52], the pest or weed control at 50 g/ha in data set [1] (setting [5]) is 90%. For the same molecule, the chromatographic logP in data set [2] (setting [4]) worked out at 1.69.
`O=C(NCc1ncccn1)c1cnn(-c2cccnc2)c1` [Example 5]: the pest or weed control at 500 g/ha in data set [1] (setting [3]) was found to be 100%. In data set [2] (setting [4]), the chromatographic logP was 0.51.
In the same order, the values of `Cc1nn(-c2cccnc2)cc1C(=O)NCC(F)(F)C(F)(F)F` [Example 31] are 100% and 1.95.
In the same order, the values of `Cc1nn(-c2cccnc2)cc1C(=O)N(C)C1CC1` [Example 29] are 100% and 1.17.
`Cc1nn(-c2cccnc2)cc1C(=O)NCC(F)(F)F` [Example 2, 3-Methyl-1-(pyridin-3-yl)-N-(2,2,2-trifluoroethyl)-1H-pyrazole-4-carboxamide]: the pest or weed control at 500 g/ha in data set [1] (in Brassica rapa) stood at 100%. Besides, the chromatographic logP in data set [2] (setting [4]) and in data set [2] (setting [6]) was 1.45 in each case.
With `Cc1nn(-c2cccnc2)cc1C(=O)NC1(C(F)(F)F)CC1` [Example 47], the pest or weed control at 500 g/ha in data set [1] (setting [3]) was found to be 100%. Also, the chromatographic logP in data set [2] (setting [4]) came to 1.63.
In the same order, the values of `COC(=O)C(C)NC(=O)c1cn(-c2cccnc2)nc1C` (stereo not shown) [Example 43] are 100% and 1.14.
`Cc1nn(-c2cccnc2)cc1C(=O)NCC(C)(F)F` [Example 27]: the pest or weed control at 500 g/ha in data set [1] (setting [3]) came to 100%. Also, the chromatographic logP in data set [2] (setting [4]) was found to be 1.35.
For the molecule `Cc1nn(-c2cccnc2)cc1C(=O)N(C)CC(F)(F)F` [Example 37], the pest or weed control at 500 g/ha in data set [1] (setting [3]) was found to be 100%. Moreover, in data set [2] (setting [4]), the chromatographic logP was 1.57.
In the same order, the values of `O=C(NC1(C(F)(F)F)CC1)c1cnn(-c2cccnc2)c1` [Example 13] are 100% and 1.4.
In the same order, the values of `O=C(NC1CC1)c1cnn(-c2cccnc2)c1` [Example 18] are 100% and 0.78.
For the molecule `Cc1nn(-c2cccnc2)cc1C(=O)O` [3-Methyl-1-(pyridin-3-yl)-1H-pyrazole-4-carboxylic acid], the chromatographic logP in data set [2] (setting [6]) was 0.77.
In the case of `CN(C)C(=O)c1cnn(-c2cccnc2)c1` [Example 4], in data set [1] (setting [5]), the pest or weed control at 50 g/ha came to 90%. Also, the chromatographic logP in data set [2] (setting [4]) came to 0.6.
Consider `Cc1nn(-c2cccnc2)cc1C(=O)NCC1COCCO1` (stereo not shown) [Example 34], for which the pest or weed control at 500 g/ha in data set [1] (setting [3]) is 100%. The chromatographic logP in data set [2] (setting [4]) turned out to be 0.91.
In the case of `COc1cc(OC)nc(CNC(=O)c2cnn(-c3cccnc3)c2)n1` [Example 51], the chromatographic logP in data set [2] (setting [4]) came out at 1.37.
Regarding `CCNC(=O)c1cn(-c2cccnc2)nc1C` [Example 39], in data set [1] (setting [3]), the pest or weed control at 500 g/ha was found to be 100%. In addition, the chromatographic logP in data set [2] (setting [4]) was 0.91.
In the same order, the values of `Cc1nn(-c2cccnc2)cc1C(=O)NCc1ncccn1` [Example 7] are 100% and 0.78.
In the same order, the values of `N#CCNC(=O)c1cnn(-c2cccnc2)c1` [Example 40] are 100% and 0.52.
For the molecule `COC(=O)NNC(=O)c1cn(-c2cccnc2)nc1C` [Example 50], in data set [1] (setting [3]), the pest or weed control at 500 g/ha stood at 100%. In data set [2] (setting [7]), the chromatographic logP is 0.52.
With `Cc1nn(-c2cccnc2)cc1C(=O)NCC1CC1` [Example 36], the pest or weed control at 500 g/ha in data set [1] (setting [3]) came out at 100%. Also, the chromatographic logP in data set [2] (setting [4]) was 1.32.
In the same order, the values of `O=C(NCC1COCCO1)c1cnn(-c2cccnc2)c1` (stereo not shown) [Example 23] are 100% and 0.7.
In the same order, the values of `Cc1nn(-c2cccnc2)cc1C(=O)NCC1OCCO1` [Example 33] are 100% and 0.88.
Consider `CCNC(=O)c1cnn(-c2cccnc2)c1` [Example 1, N-Ethyl-1-(pyridin-3-yl)-1H-pyrazole-4-carboxamide], for which, in data set [1] (in Brassica rapa), the pest or weed control at 500 g/ha stood at 100%. The chromatographic logP in data set [2] (setting [4]) and in data set [2] (setting [6]) was 0.64 each time.
Turning to `O=C(NCC(F)F)c1cnn(-c2cccnc2)c1` [Example 6], in data set [1] (setting [3]), the pest or weed control at 500 g/ha turned out to be 100%. The chromatographic logP in data set [2] (setting [4]) was 0.87.
In the same order, the values of `Cc1nn(-c2cccnc2)cc1C(=O)NCc1ccccn1` [Example 28] are 100% and 0.52.
In the same order, the values of `O=C(NCCC(F)(F)F)c1cnn(-c2cccnc2)c1` [Example 21] are 100% and 1.31.
For `Cc1nn(-c2cccnc2)cc1C(=O)NC(C)C1CC1` (stereo not shown) [Example 26], in data set [1] (setting [3]), the pest or weed control at 500 g/ha was 100%. The “logP (HCOOH)” value in data set [2] (HPLC on reversed-phase column (C 18), acidic range (pH 3.4), 55° C., Table 1) was determined as 1.45. For the same molecule, the chromatographic logP in data set [2] (setting [4]) stood at 1.58.
As for `CN(CC(F)(F)F)C(=O)c1cnn(-c2cccnc2)c1` [Example 8], the pest or weed control at 500 g/ha in data set [1] (setting [3]) amounted to 100%. The chromatographic logP in data set [2] (setting [4]) was 1.43.
In the same order, the values of `COC(CNC(=O)c1cn(-c2cccnc2)nc1C)OC` [Example 35] are 100% and 1.04.
Consider `CCOC(=O)c1cn(-c2cccnc2)nc1C` [Ethyl 3-methyl-1-(pyridin-3-yl)-1H-pyrazole-4-carboxylate], for which, in data set [2] (setting [6]), the chromatographic logP stood at 1.83.
Consider `CN(C(=O)c1cnn(-c2cccnc2)c1)C1CC1` [Example 19], for which the pest or weed control at 500 g/ha in data set [1] (setting [3]) amounted to 100%. Besides, the chromatographic logP in data set [2] (setting [4]) came out at 1.09.
With `O=C(O)c1cnn(-c2cccnc2)c1` [1-(Pyridin-3-yl)-1H-pyrazole-4-carboxylic acid], the chromatographic logP in data set [2] (setting [6]) was found to be 0.5.
For `O=C(NCc1ccccn1)c1cnn(-c2cccnc2)c1` [Example 16], the pest or weed control at 500 g/ha in data set [1] (setting [3]) stood at 100%. Also, the chromatographic logP in data set [2] (setting [4]) is 0.31.
With `N#CC1(NC(=O)c2cnn(-c3cccnc3)c2)CC1` [Example 53], the pest or weed control at 50 g/ha in data set [1] (setting [5]) is 90%. The chromatographic logP in data set [2] (setting [4]) was 0.76.
For the molecule `CC(NC(=O)c1cnn(-c2cccnc2)c1)C1CC1` (stereo not shown) [Example 14], the pest or weed control at 500 g/ha in data set [1] (setting [3]) was found to be 100%. Moreover, the chromatographic logP in data set [2] (setting [4]) was found to be 1.38.
In the same order, the values of `CC(C)C(C#N)NC(=O)c1cnn(-c2cccnc2)c1` (stereo not shown) [Example 41] are 100% and 1.4.
In the same order, the values of `Cc1cc(C)nc(CNC(=O)c2cn(-c3cccnc3)nc2C)n1` [Example 49] are 100% and 1.2.
Turning to `Cc1nn(-c2cccnc2)cc1C(=O)NCCOc1cc(Cl)ccc1Cl` [Example 57], in data set [2] (setting [4]), the chromatographic logP came to 2.56.
Turning to `Cc1nn(-c2cccnc2)cc1C(=O)NCc1nc(C2CC2)no1` [Example 48], the pest or weed control at 500 g/ha in data set [1] (setting [3]) is 100%. For the same molecule, the chromatographic logP in data set [2] (setting [4]) was found to be 1.43.
In the same order, the values of `Cc1nn(-c2cccnc2)cc1C(=O)NCC(F)F` [Example 46] are 100% and 1.12.
Turning to `CN(C(=O)c1cnn(-c2cccnc2)c1)C(C)(C)C#N` [Example 42], in data set [1] (setting [3]), the pest or weed control at 500 g/ha stood at 100%. In addition, the chromatographic logP in data set [2] (setting [4]) turned out to be 1.09.
Consider `O=C(NCC1OCCO1)c1cnn(-c2cccnc2)c1` [Example 22], for which the pest or weed control at 500 g/ha in data set [1] (setting [3]) came to 100%. Moreover, in data set [2] (setting [4]), the chromatographic logP was 0.66.
Regarding `O=C(NCC1Cc2ccccc2O1)c1cnn(-c2cccnc2)c1` (stereo not shown) [Example 17], the chromatographic logP in data set [2] (setting [4]) is 1.68.
With `CC(F)(F)CNC(=O)c1cnn(-c2cccnc2)c1` [Example 15], the pest or weed control at 500 g/ha in data set [1] (setting [3]) is 100%. The chromatographic logP in data set [2] (setting [4]) turned out to be 1.11.
Turning to `COC(=O)N(C)NC(=O)c1cn(-c2cccnc2)nc1C` [Example 54], the pest or weed control at 500 g/ha in data set [1] (setting [3]) was determined as 100%. For the same molecule, the chromatographic logP in data set [2] (setting [7]) is 0.79.
For the molecule `COC(=O)C(C)NC(=O)c1cnn(-c2cccnc2)c1` (stereo not shown) [Example 55], the pest or weed control at 50 g/ha in data set [1] (setting [5]) was 90%. Also, in data set [2] (setting [4]), the chromatographic logP was 0.91.
For `Cc1nn(-c2cccnc2)cc1C(=O)NCC1Cc2ccccc2O1` (stereo not shown) [Example 56], the chromatographic logP in data set [2] (setting [4]) was determined as 1.9.
Regarding `N#Cc1cnn(-c2cccnc2)c1` [1-(Pyridin-3-yl)-1H-pyrazole-4-carbonitrile], the chromatographic logP in data set [2] (setting [6]) worked out at 0.98.
Turning to `CON(C)C(=O)c1cnn(-c2cccnc2)c1` [Example 11], in data set [2] (setting [4]), the chromatographic logP is 0.97.
